Values of other authors as cited in patent US20060205810A1, “Platinum therapeutic combinations” (Schering Corporation, priority 2004, published 2006).

Columns and labels:
[1] = tested on: human ovarian carcinoma cells
[2] = tested on: intrinsic and acquired resistance to cisplatin; settings: cell culture studies
[3] = tested on: small cell lung cancer (SCLC); settings: small cell lung cancer patients
[4] = incubated with fresh human whole blood in vitro

Row | SMILES | cytotoxicity compared with cisplatin [1] | circumvention of resistance to cisplatin [2] | complete responses [3] | median overall survival time [3] [days] | tumor response rate ([3]; 10 of 26) [%] | added platinum associated with red blood cells [4] [%] | half-life for the disappearance of the drug [4] [min]
1 | N.NC1CCCCC1.[Cl-].[Cl-].[Pt+2] [JM118] | greater cytotoxicity than cisplatin | can partially circumvent intrinsic and acquired resistance to cisplatin | – | – | – | – | –
2 | CC(=O)[O][Pt]([NH2])([Cl])([Cl])([NH]C1CCCCC1)[O]C(C)=O [satraplatin] | – | can partially circumvent intrinsic and acquired resistance to cisplatin | no complete responses | 210 | 38 | 62 | 6.3
